Results from patent US4542123A (Massachusetts Institute of Technology, priority 1982, dated 1985).

Experiment: Plasma amino acid levels after glucose ingestion (Example I, Table 1)
Type: in vivo, human
Experimental: Six healthy, non-obese, fasting subjects each received, on different days 0, 6, 12.5, 25 or 50 g of glucose (Glucola) in a total volume of 100 ml.
Following a protocol approved by the Massachusetts Institute of Technology Committee on the Use of Humans as Experimental Subjects, 6 healthy volunteer outpatients, aged 25-33 years, participated in the study; 3 were males and 3 females. Mean weight was 60 kg for the women and 70 for the men; all subjects were within 10% of their ideal body weight as determined by Metropolitan Life Insurance Company tables. […] Subjects were asked to take meals rich in carbohydrate content (about 300 g/day) for 3 days before beginning the study. On 5 separate days, each subject fasted from 8 p.m. until 9 the next morning and then received a load of 0, 6, 12.5, 25 or 50 g of glucose (caffeine-free glucola) dissolved in water in a total volume of 100 ml; the order of doses was randomized. Venous blood samples were drawn from the antecubital vein through an indwelling catheter at 0, 60 and 120 min for all doses and additionally at 30 and 180 min for the 12.5, 25 and 50 g doses. Blood was collected in heparanized tubes; after centrifugation plasma was stored at -20° C. until analyzed. […] Glucose was analyzed spectrophotometrically after reaction with O-toluidine in hot acidic acid (Sigma Bulletin #635;15). Insulin was measured using a commercial radioimmunoassay kit by a double antibody method (Bio-RIA, Louisville, Ky.). Plasma tryptophan was measured fluorometrically on 20 μl plasma aliquots by the method of Denckla and Dewey, J. Lab. Clin. Med. 69: 160-169, 1967, as modified by Lehman, Scand. J. Clin. Lab. Invest. 28: 49-55, 1971. Branched-chain amino acids and aromatic amino acids were measured in 500 μl aliquots of plasma, deproteinized with sulfosalicylic acid, using a Beckman amino acid analyzer (Beckman Instruments, Palo Alto, Calif., Model 119C).
Data, given as means ±SE errors, were analyzed by two-way analysis of variance; factors compared were dose and time. The Scheffe test was employed to test the statistical significance of differences; p<0.05 was considered significant. Areas under the curves were evaluated by the method of trapezoid approximation. Student tests for paired data were used to evaluate the significance of changes in individual amino acids. Amino acid concentrations after treatments for each subject were also expressed as a percentage of that day's pretreatment levels; mean percent changes were then calculated for each treatment and time interval.
Sum of the LNAA: total concentration of leucine, isoleucine, valine,
the sum of the LNAA, measured 0, 60 and 120 min after 6 nonobese, fasting
subjects ingested 0, 6, 12.5, 25 or 50 g of glucose. All plasma amino
acids, except tryptophan, were measured on a Beckman amino acid analyzer.
Tryptophan was measured by the method of Denckla and Dewey. Data are
expressed as means ± S.E.M.

O=C[C@H](O)[C@@H](O)[C@H](O)[C@H](O)CO [Glucose, glucose]
Absolute leucine concentrations (6-50 g glucose): decreased significantly after 6-50 g
LNAA concentrations, some subjects (6 g of glucose): transiently decreased LNAA concentrations
All other amino acids (absolute concentrations) (12.5-50 g glucose): decreased significantly after 12.5-50 g
Relationship between rise in plasma insulin and fall in LNAA (areas under the curve) (12.5-50 g glucose, subjects 2 and 4, not robust for other subjects): clear inverse linear relationship
Decrease of plasma LNAA vs 0 and 6 g doses (25 and 50 g, 60 and 120 min, P<0.05): significantly greater than those following the 0 and 6 g doses
Decrease of branched-chain amino acids (50 g glucose, 120 min): 35-41%
Decrease of methionine (50 g glucose, 120 min): 31%
Decrease of phenylalanine and tyrosine (50 g glucose, 120 min): 29-31%
Decrease of tryptophan (50 g glucose, 120 min): 23%
Percent reduction in plasma LNAA, 50-g vs 25-g dose (50 g vs 25 g glucose): not consistently associated with a greater percent reduction in plasma LNAA
Absolute concentrations of amino acids, 50-g vs 25-g dose (50 g vs 25 g glucose, 120 min, zero-time LNAA also lower): lower absolute concentrations of the amino acids than the 25-g dose after 120 min
Plasma LNAA concentrations (percent of pre-treatment) (60 and 120 min): dose-related depression of plasma LNAA concentrations
Correlation (r) of glucose dose with mean percent decrease in LNAA (120 min, P<0.01): 0.80
Decrease of branched-chain amino acids (after 50 g of glucose): 35-41%
Fall of plasma tyrosine concentrations (after 50 g of glucose): 23%
Ratio of plasma tyrosine to other plasma LNAA (after 50 g of glucose): increased significantly
Absolute isoleucine concentrations (after all treatments (0-50 g glucose)): decreased significantly with time after all treatments
Tyrosine/LNAA ratio (any glucose dose): did not change significantly
Plasma Iso level (glucose 6 g, 0 min): 60 ± 7 nmol/mL
Plasma LNAA (sum) (glucose 6 g, 0 min): 522 ± 47 nmol/mL
Plasma Leu level (glucose 6 g, 0 min): 113 ± 11 nmol/mL
Plasma Met level (glucose 6 g, 0 min): 24 ± 4 nmol/mL
Plasma Phe level (glucose 6 g, 0 min): 50 ± 3 nmol/mL
Plasma Trp level (glucose 6 g, 0 min): 46 ± 4 nmol/mL
Plasma Tyr level (glucose 6 g, 0 min): 57 ± 8 nmol/mL
Plasma Val level (glucose 6 g, 0 min): 220 ± 19 nmol/mL
Trp/LNAA (glucose 6 g, 0 min): .088
Plasma Iso level (glucose 6 g, 60 min): 51 ± 4 nmol/mL
Plasma Leu level (glucose 6 g, 60 min): 100 ± 12 nmol/mL
Plasma Met level (glucose 6 g, 60 min): 21 ± 3 nmol/mL
Plasma Phe level (glucose 6 g, 60 min): 46 ± 2 nmol/mL
Plasma Trp level (glucose 6 g, 60 min): 43 ± 4 nmol/mL
Plasma Tyr level (glucose 6 g, 60 min): 51 ± 7 nmol/mL
Plasma Val level (glucose 6 g, 60 min): 201 ± 15 nmol/mL
Trp/LNAA (glucose 6 g, 60 min): .092
Plasma Iso level (glucose 6 g, 120 min): 51 ± 5 nmol/mL
Plasma LNAA (sum) (glucose 6 g, 120 min): 471 ± 37 nmol/mL
Plasma Leu level (glucose 6 g, 120 min): 101 ± 9 nmol/mL
Plasma Met level (glucose 6 g, 120 min): 22 ± 3 nmol/mL
Plasma Phe level (glucose 6 g, 120 min): 47 ± 3 nmol/mL
Plasma Trp level (glucose 6 g, 120 min): 41 ± 4 nmol/mL
Plasma Tyr level (glucose 6 g, 120 min): 50 ± 6 nmol/mL
Plasma Val level (glucose 6 g, 120 min): 200 ± 16 nmol/mL
Trp/LNAA (glucose 6 g, 120 min): .086
Plasma Iso level (glucose 12.5 g, 0 min): 65 ± 5 nmol/mL
Plasma LNAA (sum) (glucose 12.5 g, 0 min): 574 ± 15 nmol/mL
Plasma Leu level (glucose 12.5 g, 0 min): 117 ± 10 nmol/mL
Plasma Met level (glucose 12.5 g, 0 min): 27 ± 2 nmol/mL
Plasma Phe level (glucose 12.5 g, 0 min): 54 ± 4 nmol/mL
Plasma Trp level (glucose 12.5 g, 0 min): 45 ± 2 nmol/mL
Plasma Tyr level (glucose 12.5 g, 0 min): 58 ± 4 nmol/mL
Plasma Val level (glucose 12.5 g, 0 min): 255 ± 47 nmol/mL
Trp/LNAA (glucose 12.5 g, 0 min): .079
Plasma Iso level (glucose 12.5 g, 60 min): 53 ± 4 nmol/mL
Plasma LNAA (sum) (glucose 12.5 g, 60 min): 501 ± 66 nmol/mL
Plasma Leu level (glucose 12.5 g, 60 min): 96 ± 10 nmol/mL
Plasma Met level (glucose 12.5 g, 60 min): 25 ± 1 nmol/mL
Plasma Phe level (glucose 12.5 g, 60 min): 50 ± 3 nmol/mL
Plasma Trp level (glucose 12.5 g, 60 min): 40 ± 1 nmol/mL
Plasma Tyr level (glucose 12.5 g, 60 min): 52 ± 3 nmol/mL
Plasma Val level (glucose 12.5 g, 60 min): 226 ± 48 nmol/mL
Trp/LNAA (glucose 12.5 g, 60 min): .080
Plasma Iso level (glucose 12.5 g, 120 min): 48 ± 3 nmol/mL
Plasma LNAA (sum) (glucose 12.5 g, 120 min): 582 ± 49 nmol/mL
Plasma Leu level (glucose 12.5 g, 120 min): 95 ± 9 nmol/mL
Plasma Met level (glucose 12.5 g, 120 min): 23 ± 1 nmol/mL
Plasma Phe level (glucose 12.5 g, 120 min): 46 ± 2 nmol/mL
Plasma Trp level (glucose 12.5 g, 120 min): 41 ± 1 nmol/mL
Plasma Tyr level (glucose 12.5 g, 120 min): 50 ± 3 nmol/mL
Plasma Val level (glucose 12.5 g, 120 min): 221 ± 98 nmol/mL
Trp/LNAA (glucose 12.5 g, 120 min): .084
